Measurements from ChEMBL document CHEMBL3390836, “Mannich- and LedererManasse-based analogues of the natural product S-(+)-curcuphenol as cancer proliferation and migration inhibitors” (Medchemcomm, 2012).

Tests used:
Format in all cases: functional
K562 [1] = assay: Cytotoxicity against human K562 cells assessed as cell growth at 10^-8 M after 48 hrs by SRB assay relative to control; conditions: K562, 48 h, read-out: Activity
MDA-MB-435 = assay: Cytotoxicity against human MDA-MB-435 cells assessed as cell growth at 10^-7 M after 48 hrs by SRB assay relative to control; conditions: MDA-MB-435, 48 h, read-out: Activity
[2] = Cytotoxicity against human OVCAR4 cells after 48 hrs by SRB assay; conditions: OVCAR-4, 48 h
TK-10 = assay: Cytotoxicity against human TK10 cells assessed as cell growth at 10^-6 M after 48 hrs by SRB assay relative to control; conditions: TK-10, 48 h, read-out: Activity
Malme-3M [3] = assay: Cytotoxicity against human MALME-3M cells assessed as cell growth at 10^-8 M after 48 hrs by SRB assay relative to control; conditions: read-out: Activity
HL-60(TB) [4] = assay: Cytotoxicity against human HL-60(TB) cells assessed as cell growth at 10^-8 M after 48 hrs by SRB assay relative to control; conditions: HL-60, 48 h, read-out: Activity
SNB-19 = assay: Cytotoxicity against human SNB19 cells assessed as cell growth at 10^-7 M after 48 hrs by SRB assay relative to control; conditions: SNB-19, 48 h, read-out: Activity
[5] = Cytotoxicity against human UO31 cells after 48 hrs by SRB assay; conditions: UO-31, 48 h
RXF 393 [6] = assay: Cytotoxicity against human RXF393 cells assessed as cell growth at 10^-7 M after 48 hrs by SRB assay relative to control; conditions: RXF 393, 48 h, read-out: Activity
SK-MEL-2 = assay: Cytotoxicity against human SK-MEL-2 cells assessed as cell growth at 10^-7 M after 48 hrs by SRB assay relative to control; conditions: SK-MEL-2, 48 h, read-out: Activity
CAKI-1 = assay: Cytotoxicity against human Caki1 cells assessed as cell growth at 10^-7 M after 48 hrs by SRB assay relative to control; conditions: CAKI-1, 48 h, read-out: Activity
IGROV-1 [7] = assay: Cytotoxicity against human IGROV1 cells assessed as cell growth at 10^-8 M after 48 hrs by SRB assay relative to control; conditions: IGROV-1, 48 h, read-out: Activity
IGROV-1 [8] = assay: Cytotoxicity against human IGROV1 cells assessed as cell growth at 10^-4 M after 48 hrs by SRB assay relative to control; conditions: IGROV-1, 48 h, read-out: Activity
SK-MEL-5 = assay: Cytotoxicity against human SK-MEL-5 cells assessed as cell growth at 10^-7 M after 48 hrs by SRB assay relative to control; conditions: SK-MEL-5, 48 h, read-out: Activity
[9] = Cytotoxicity against human HCT15 cells assessed as cell growth at 10^-4 M after 48 hrs by SRB assay relative to control; conditions: HCT-15, 48 h, read-out: Activity
NCI-H322M = assay: Cytotoxicity against human NCI-H322M cells assessed as cell growth at 10^-4 M after 48 hrs by SRB assay relative to control; conditions: read-out: Activity
SK-MEL-28 [10] = assay: Cytotoxicity against human SK-MEL-28 cells assessed as cell growth at 10^-6 M after 48 hrs by SRB assay relative to control; conditions: SK-MEL-28, 48 h, read-out: Activity
K562 [11] = assay: Cytotoxicity against human K562 cells assessed as cell growth at 10^-6 M after 48 hrs by SRB assay relative to control; conditions: K562, 48 h, read-out: Activity
SK-MEL-28 [12] = assay: Cytotoxicity against human SK-MEL-28 cells assessed as cell growth at 10^-7 M after 48 hrs by SRB assay relative to control; conditions: SK-MEL-28, 48 h, read-out: Activity
Malme-3M [13] = assay: Cytotoxicity against human MALME-3M cells assessed as cell growth at 10^-6 M after 48 hrs by SRB assay relative to control; conditions: read-out: Activity
MDA-MB-231 = assay: Cytotoxicity against human MDA-MB-231 cells assessed as cell growth at 10^-8 M after 48 hrs by SRB assay relative to control; conditions: MDA-MB-231, 48 h, read-out: Activity
A549 = assay: Cytotoxicity against human A549 cells assessed as cell growth at 10^-8 M after 48 hrs by SRB assay relative to control; conditions: A549, 48 h, read-out: Activity
HT-29 = assay: Cytotoxicity against human HT-29 cells assessed as cell growth at 10^-7 M after 48 hrs by SRB assay relative to control; conditions: HT-29, 48 h, read-out: Activity
SF-539 = assay: Cytotoxicity against human SF539 cells assessed as cell growth at 10^-4 M after 48 hrs by SRB assay relative to control; conditions: SF-539, 48 h, read-out: Activity
KM12 = assay: Cytotoxicity against human KM12 cells assessed as cell growth at 10^-4 M after 48 hrs by SRB assay relative to control; conditions: KM12, 48 h, read-out: Activity
ACHN = assay: Cytotoxicity against human ACHN cells assessed as cell growth at 10^-8 M after 48 hrs by SRB assay relative to control; conditions: read-out: Activity
RXF 393 [14] = assay: Cytotoxicity against human RXF393 cells assessed as cell growth at 10^-6 M after 48 hrs by SRB assay relative to control; conditions: RXF 393, 48 h, read-out: Activity
SK-MEL-28 [15] = assay: Cytotoxicity against human SK-MEL-28 cells after 48 hrs by SRB assay; conditions: SK-MEL-28, 48 h; for CC50: read-out: LC50 (the source's name)
HCC 2998 = assay: Cytotoxicity against human HCC2998 cells after 48 hrs by SRB assay; conditions: HCC 2998, 48 h; for CC50: read-out: LC50 (the source's name)
[16] = Cytotoxicity against human PC3 cells assessed as cell growth at 10^-6 M after 48 hrs by SRB assay relative to control; conditions: PC-3, 48 h, read-out: Activity
T47D = assay: Cytotoxicity against human T47D cells assessed as cell growth at 10^-7 M after 48 hrs by SRB assay relative to control; conditions: read-out: Activity
HL-60(TB) [17] = assay: Cytotoxicity against human HL-60(TB) cells assessed as cell growth at 10^-4 M after 48 hrs by SRB assay relative to control; conditions: HL-60, 48 h, read-out: Activity
SW-620 = assay: Cytotoxicity against human SW620 cells assessed as cell growth at 10^-7 M after 48 hrs by SRB assay relative to control; conditions: SW-620, 48 h, read-out: Activity
RXF 393 [18] = assay: Cytotoxicity against human RXF393 cells assessed as cell growth at 10^-8 M after 48 hrs by SRB assay relative to control; conditions: RXF 393, 48 h, read-out: Activity
LOX IMVI = assay: Cytotoxicity against human LOXIMVI cells assessed as cell growth at 10^-6 M after 48 hrs by SRB assay relative to control; conditions: read-out: Activity
HOP-62 = assay: Cytotoxicity against human HOP62 cells assessed as cell growth at 10^-4 M after 48 hrs by SRB assay relative to control; conditions: HOP-62, 48 h, read-out: Activity

Structure (SMILES): CC(C)=CCC[C@H](C)c1ccc(C)c2c1OCN(CC1CCNCC1)C2
- growth at 0.01 µM (K562 [1]): 97%
- growth at 0.1 µM (MDA-MB-435): 96%
- GI50 [2]: 16 µM
- LC50 [2]: 58.9 µM
- TGI [2]: 30.7 µM
- growth at 1 µM (TK-10): 118%
- growth at 0.01 µM (Malme-3M [3]): 92%
- growth at 0.01 µM (HL-60(TB) [4]): 96%
- growth at 0.1 µM (SNB-19): 95%
- GI50 [5]: 12.8 µM
- LC50 [5]: 58.2 µM
- TGI [5]: 27.3 µM
- growth at 0.1 µM (RXF 393 [6]): 112%
- growth at 0.1 µM (SK-MEL-2): 111%
- growth at 0.1 µM (CAKI-1): 108%
- growth at 0.01 µM (IGROV-1 [7]): 101%
- growth at 100 µM (IGROV-1 [8]): -86%
- growth at 0.1 µM (SK-MEL-5): 88%
- growth at 100 µM [9]: -83%
- growth at 100 µM (NCI-H322M): -68%
- growth at 1 µM (SK-MEL-28 [10]): 101%
- growth at 1 µM (K562 [11]): 93%
- growth at 0.1 µM (SK-MEL-28 [12]): 101%
- growth at 1 µM (Malme-3M [13]): 95%
- growth at 0.01 µM (MDA-MB-231): 101%
- growth at 0.01 µM (A549): 95%
- growth at 0.1 µM (HT-29): 112%
- growth at 100 µM (SF-539): -93%
- growth at 100 µM (KM12): -90%
- growth at 0.01 µM (ACHN): 100%
- growth at 1 µM (RXF 393 [14]): 125%
- GI50 (SK-MEL-28 [15]): 15.7 µM
- TGI (SK-MEL-28 [15]): 28.3 µM
- CC50 (SK-MEL-28 [15]): 54.8 µM
- GI50 (HCC 2998): 3.74 µM
- TGI (HCC 2998): 12.3 µM
- CC50 (HCC 2998): 37.5 µM
- growth at 1 µM [16]: 103%
- growth at 0.1 µM (T47D): 94%
- growth at 100 µM (HL-60(TB) [17]): -73%
- growth at 0.1 µM (SW-620): 100%
- growth at 0.01 µM (RXF 393 [18]): 86%
- growth at 1 µM (LOX IMVI): 99%
- growth at 100 µM (HOP-62): -94%

Structure (SMILES): CC(C)=CCC[C@H](C)c1ccc(C)c(CNCC2CCNCC2)c1O
- growth at 0.01 µM (K562 [1]): 103%
- growth at 0.1 µM (MDA-MB-435): 92%
- GI50 [2]: 18.2 µM
- LC50 [2]: > 25 µM
- TGI [2]: > 25 µM
- growth at 1 µM (TK-10): 99%
- growth at 0.01 µM (Malme-3M [3]): 97%
- growth at 0.01 µM (HL-60(TB) [4]): 86%
- growth at 0.1 µM (SNB-19): 91%
- GI50 [5]: 3.58 µM
- LC50 [5]: > 25 µM
- TGI [5]: 12.3 µM
- growth at 0.1 µM (RXF 393 [6]): 85%
- growth at 0.1 µM (SK-MEL-2): 97%
- growth at 0.1 µM (CAKI-1): 94%
- growth at 0.01 µM (IGROV-1 [7]): 102%
- growth at 100 µM (IGROV-1 [8]): 24%
- growth at 0.1 µM (SK-MEL-5): 90%
- growth at 100 µM [9]: -11%
- growth at 100 µM (NCI-H322M): 13%
- growth at 1 µM (SK-MEL-28 [10]): 98%
- growth at 1 µM (K562 [11]): 91%
- growth at 0.1 µM (SK-MEL-28 [12]): 100%
- growth at 1 µM (Malme-3M [13]): 84%
- growth at 0.01 µM (MDA-MB-231): 105%
- growth at 0.01 µM (A549): 101%
- growth at 0.1 µM (HT-29): 105%
- growth at 100 µM (SF-539): -77%
- growth at 100 µM (KM12): -77%
- growth at 0.01 µM (ACHN): 96%
- growth at 1 µM (RXF 393 [14]): 95%
- GI50 (SK-MEL-28 [15]): 4.2 µM
- TGI (SK-MEL-28 [15]): 7.89 µM
- CC50 (SK-MEL-28 [15]): 14.8 µM
- GI50 (HCC 2998): 4.13 µM
- TGI (HCC 2998): 7.73 µM
- CC50 (HCC 2998): 14.4 µM
- growth at 1 µM [16]: 101%
- growth at 0.1 µM (T47D): 100%
- growth at 100 µM (HL-60(TB) [17]): -63%
- growth at 0.1 µM (SW-620): 95%
- growth at 0.01 µM (RXF 393 [18]): 101%
- growth at 1 µM (LOX IMVI): 98%
- growth at 100 µM (HOP-62): -74%
